Data set [1] relates to Campylobacter jejuni. The experiment in a line: Broth microdilution MIC/MBC and antibacterial titer on Campylobacter jejuni. In kind it is cell-based. Here is the method:
Bacterial strains and media. The antibacterial activity in Trichuris suis ESP was originally observed using Campylobacter jejuni (ATCC 33292), and this was the strain on which most experiments were performed for this preliminary characterization. Several Campylobacter jejuni and Campylobacter coli isolates were used for MIC determinations (Table 1).
Additional quality control organisms routinely used for antimicrobial susceptibility assays were tested, including Enterococcus faecalis (ATCC 29212), Staphylococcus aureus (ATCC 25923), Escherichia coli (ATCC 25922), Pseudomonas aeruginosa (ATCC 27853), and Streptococcus pneumonia (ATCC 49619). […]
(§1) A broth microdilution method in 96 well plates was used to obtain qualitative and quantitative measures of antibacterial activity. Qualitatively, 50 μl samples of ESP were added to 50 μl suspensions of Campylobacter jejuni (containing about 5×10^5 cfu, as determined by standard serial dilution and plating) in 96 well plates. Plates were evaluated for growth as indicated by the presence of either turbidity or pellet of bacterial cells in the bottoms of U-shaped wells after 48 hr incubation.
To quantify activity and determine the minimum inhibitory concentration (MIC) of ESP against test organisms, serial two-fold dilutions of 20×-concentrated ESP were prepared in 50 μl volumes of MHB (n=2). […]
For orientation: Dilution methods test growth across graded concentrations, often in twofold steps.

Data set [2] relates to Campylobacter jejuni. The experiment in a line: HPLC fractionation with qualitative broth microdilution bioassay of fractions. It is filed as cell-based. The note with it: C18 reverse phase HPLC, 5-80% ACN gradient in TFA. Here is the method:
as §1
High performance liquid chromatography. A Model 173 high performance liquid chromatography (HPLC) system (Perkin Elmer Applied Biosystems, Inc., Foster City, Calif.) at the Michigan State University Macromolecular Structure Facility was used to fractionate Trichuris suis ESP for preliminary isolation of the antibacterial activity (Hearn, Meth. Enzymol. 104: 190-212 (1984)). Samples (150 μl) of ESP were mixed with an equal volume of 0.1% trifluoroacetic acid (TFA) and centrifuged at full speed (11,000×g) at room temperature for 15 minutes. […] Absorbance of the eluate was monitored at 214 nm, and fractions were collected manually as peaks were detected. […]

The subject of data set [3] is Campylobacter jejuni. In words: Effect of boiling on antibiotics, qualitative broth microdilution assay. It is filed as cell-based. To be noted: 1x concentration, boiled for 10 minutes. As to the method:
as §1, with “incubation. […] The size of the drug was also taken into consideration. Additionally, an experiment to assess the heat stability of the antibiotics was performed.” for “incubation.”

Data set [4] is described as follows: n-octanol/water partition coefficient (log PC) of antibiotics. The note with it: in parentheses beside log PC. It is filed as physicochemical. Here is the method:
Consideration of CAP contamination. […] Using the worst-case scenario, the predicted maximum amount of CAP absorbed and how much would be released into the medium if the whipworms dissolved (i.e., released 100%) was estimated. […] It was assumed that the aggregate whipworm volume of these eccentrically shaped nematodes occupied 4% of the incubation well volume (4 whipworms/ml at about 10 μl/whipworm).

For data set [5] the following is noted: compiled from a drug database at Upjohn; cited from earlier work.

In brackets after ≈: the same amount, converted by molar mass. Structures can show the parent of a compound that is named as a salt.

We go through 3 compounds from patent US20060216356A1, “Detection of antibacterial activity in excretory secretory product of adult trichuris suis” (Board of Trustees of Michigan State University, priority 2000, published 2006).

Regarding `O=C(N[C@H](CO)[C@H](O)c1ccc([N+](=O)[O-])cc1)C(Cl)Cl` [Chloramphenicol], the MIC (in general, the least concentration at which growth counts as inhibited) against Campylobacter jejuni [1] is about 2 µg/mL (≈ 6.19 µM). The “antibacterial activity of HPLC fractions” value in the data set with Campylobacter jejuni [2] is reported as “one fraction with antibacterial activity”. Besides, the “Antibacterial activity after boiling” value in the data set on Campylobacter jejuni [3] was “+”.
As to `CC1(C)S[C@@H]2[C@H](NC(=O)Cc3ccccc3)C(=O)N2[C@H]1C(=O)O` [Penicillin G], in data set [4], the Concentrating factor worked out at 71 x. In the data set on Campylobacter jejuni [3], the “Antibacterial activity after boiling” value was “−”. Moreover, the “log PC (n-octanol/water partition coefficient)” value in data set [5] is given as 185.
As for `[H]/N=C(/N)N[C@H]1[C@H](O)[C@@H](O)[C@H](O[C@@H]2O[C@@H](C)[C@](O)(C=O)[C@H]2O[C@@H]2O[C@@H](CO)[C@H](O)[C@@H](O)[C@@H]2NC)[C@@H](N/C(N)=N\[H])[C@@H]1O` [Streptomycin sulfate], the “Antibacterial activity after boiling” value with Campylobacter jejuni [3] is recorded as “+”. Further, the “log PC (n-octanol/water partition coefficient)” value in data set [5] is −9.53(—).
